From publication PMC12096674 (Journal of Enzyme Inhibition and Medicinal Chemistry, 2025)
Read-outs that look alike come from different tables or passages of the source.

Legend:
M^pro of four alpha-CoVs = conditions: read-out: IC50 values against all four alpha-CoVs
[1] = system: M^pro of ten high-risk CoVs
HCoV-OC43 M^pro = conditions: read-out: IC50 HCoV-OC43, cited from earlier work
HCoV-HKU1 M^pro = conditions: read-out: IC50 HCoV-HKU1; cited from earlier work
HCoV-NL63 M^pro = conditions: read-out: IC50 HCoV-NL63, cited from earlier work

Q: Which IC50 (M^pro of four alpha-CoVs) does the source give for `Cn1cnc(Cn2c(=O)[nH]/c(=N\c3cc4cn(C)nc4cc3Cl)n(Cc3cc(Cl)c(F)cc3Oc3ncc(C(F)(F)F)s3)c2=O)n1` [Compound 14, (E)-6-((6-chloro-2-methyl-2H-indazol-5-yl)imino)-1-(5-chloro-4-fluoro-2-((5-(trifluoromethyl)thiazol-2-yl)oxy)benzyl)-3-((1-methyl-1H-1,2,4-triazol-3-yl)methyl)-1,3,5-triazinane-2,4-dione] here?
A: Its IC50 is less than 300 nM.

Q: With `Cc1cncc(-n2c(=O)[nH]/c(=N\c3cc4cn(C)nc4cc3Cl)n(Cc3cc(C#N)ccc3Sc3ccc(Cl)s3)c2=O)c1` [Compound 24, (E)-3-((6-((6-Chloro-2-methyl-2H-indazol-5-yl)imino)-3-(5-methylpyridin-3-yl)-2,4-dioxo-1,3,5-triazinan-1-yl)methyl)-4-((5-chlorothiophen-2-yl)thio)benzonitrile] as the molecule, how does the IC50 (M^pro of four alpha-CoVs) read?
A: Its IC50 is less than 300 nM.

Q: What does the source list for `Cn1cc2cc(/N=c3\[nH]c(=O)n(Cc4ccc[nH]c4=O)c(=O)n3Cc3cc(Cl)c(F)cc3Oc3ccc(C#N)s3)c(Cl)cc2n1` [Compound 25, (E)-5-(4-chloro-2-((6-((6-chloro-2-methyl-2H-indazol-5-yl)imino)-2,4-dioxo-3-((2-oxo-1,2-dihydropyridin-3-yl)methyl)-1,3,5-triazinan-1-yl)methyl)-5-fluoro-phenoxy)thiophene-2-carbonitrile]?
A: IC50 ([1]; read-out: IC50 against ten high-risk CoVs): < 600 nM; IC50 ([1]; read-out: IC50 values for six of the ten CoVs): < 100 nM; IC50 (M^pro of four alpha-CoVs): < 600 nM

Q: Which results are given for `Cn1cnc(Cn2c(=O)[nH]/c(=N\c3cc4cn(C)nc4cc3Cl)n(Cc3cc(F)c(F)cc3F)c2=O)n1` [S-217622 (1)]?
A: IC50 (HCoV-OC43 M^pro; reported compound): […]; IC50 (HCoV-HKU1 M^pro): […]; IC50 (HCoV-NL63 M^pro; reported compound): […]
